pIC50: −log10 of the molar value.
Assays:
Solubility = assay type: physicochemical
[1] = tested on: triple negative breast cancer (TNBC); assay: Treatment of a TNBC patient (Example 1); assay type: in vivo, human; conditions: therapeutically effective amount
Description: A patient presents with a lump in their left breast. A biopsy of the mass is performed and the cells are found to lack estrogen or progesterone receptors and HER2 protein thus confirming a diagnosis of triple negative breast cancer (TNBC). The patient is administered a therapeutically effective amount of 4-Ethyl-N-(7-hydroxy-3,4-dihydroisoquinolin-2(1H)-yl) benzamide (GM-4-53) for a time period sufficient to inhibit cell proliferation. The patient is tested at regular intervals while the drug is being administered as well as after administration has stopped.

MDA-MB-231 cells [2] = assay: 2D imaging of cytoskeletal morphology (phalloidin/propidium iodide); assay type: cell-based, human; conditions: day 6; GM-4-53 5 μg/mL, paclitaxel 1 μg/mL
Description: (§1) 2D cell cultures were imaged to ascertain changes in morphological structure at the 6-day endpoint in MDA-MB-231 cells in the presence or absence of treatments. In brief, cells were fixed in 4% paraformaldehyde and incubated at 37° C. in 5% CO2/atmosphere for 15 min. After delicate removal of paraformaldehyde, sterile ultra-pure biological grade water containing 0.2% Triton X-100 was gently added to each well (100 uL) and returned to the incubator for 45 min. After gentle removal, a PBS solution containing propidium iodide (1 μg/mL) and Phalloidin-iFluor 488 Reagent (ab176753) was added to each well, according to the manufacturer's instructions Abcam (Cambridge, MA, USA), and images were captured on an inverted fluorescent microscope using the 10× and 25× fluo-objectives. 3D tumors were stained with fluorescein diacetate (live-cell dye) and countered imaged for morphology.

[3] = tested on: Ishikawa endometrial cancer cell line; assay: Cytostatic effect, CellTiter-Glo luminescent cell viability assay; assay type: cell-based, human; conditions: Southern Research Institute, FIG. 4
Description: (§2) The anti-proliferative activity of GM-4-53 on two additional cell lines was evaluated at the Southern Research Institute (SRI, Birmingham, Alabama, USA). There, the human MCF-7 breast cancer cell line was purchased from the NCI. The human Ishikawa endometrial cancer cell line was purchased from Sigma Aldrich. Both cell lines were cultured in phenol red-free RPMI-1640 (Hyclone) (500 mL), supplemented with L-glutamine-dipeptide (Hyclone) (5 mL), and 10% fetal bovine serum (Atlanta Biologicals) (50 mL).
(§3) For MDA-MB-231 cells, both paclitaxel and GM-4-53 were dissolved in DMSO and […]. A stock solution for both compounds was prepped in HBSS. In brief, 96-well plates were seeded with cells (0.04×10^5/well) to a volume of 200 μL, to which drugs were added, and cell proliferation (as cell count) was evaluated at a 6-day endpoint, using Alamar blue. […] Samples were returned to the incubator for 4-6 h, and the reduction in the dye (to resorufin, a fluorescent compound) caused by viable cells was quantitatively analyzed using a Synergy HTX multi-mode reader (Bio-Tek, Winooski, VT, USA), with excitation/emission wavelength settings at 550 nm/580 nm. Cell count was evaluated as % control, and the inhibitory growth (IG50) value was calculated by regression analysis. […] Luminescence results were read on TriLux Luminometer. […]

[4] = tested on: MCF-7 breast cancer cell line; assay: as above; assay type: cell-based, human; conditions: MCF-7, Southern Research Institute, FIG. 4
Description: as §2, §3

MDA-MB-231 cells [5] = assay: Whole-transcriptome microarray (WT 2.1 Human), differentially expressed genes; assay type: cell-based; conditions: 36 h; for ID1, ID3 and ID4 transcripts: GM-4-53 more significant effects than paclitaxel; for DEGs shared by both drugs (overlap) / down-regulated DEGs vs. controls / upregulated DEGs vs. controls / differentially expressed genes (DEGs) of 48,226 genes analyzed: paclitaxel 1 μg/mL, GM-4-53 5 μg/mL; for differentially expressed genes (DEGs) of 48,226 genes analyzed: FC >2 or <−2, p and FDR p <0.05
Description: For MDA-MB-231 cells, both paclitaxel and GM-4-53 were dissolved in DMSO and […]. A stock solution for both compounds was prepped in HBSS. In brief, 96-well plates were seeded with cells (0.04×10^5/well) to a volume of 200 μL, to which drugs were added, and cell proliferation (as cell count) was evaluated at a 6-day endpoint, using Alamar blue. For Alamar blue testing, a working solution of resazurin prepared in sterile phosphate-buffered saline (PBS)-phenol red (0.5 mg/mL) was added (15% v/v) to each sample in a 96-well plate. Samples were returned to the incubator for 4-6 h, and the reduction in the dye (to resorufin, a fluorescent compound) caused by viable cells was quantitatively analyzed using a Synergy HTX multi-mode reader (Bio-Tek, Winooski, VT, USA), with excitation/emission wavelength settings at 550 nm/580 nm. Cell count was evaluated as % control, and the inhibitory growth (IG50) value was calculated by regression analysis. Cytotoxicity studies were carried out at equal dose concentrations as proliferation studies at a higher plating density (0.5×10^5/well), over 24-36 h. The cytostatic effects of MCF-7 and Ishikawa cell lines were determined using the CellTiter-Glo (CTG) luminescent cell viability assay, which is based on the direct determination of intracellular ATP level (determining the number of viable cells in culture based on the quantification of ATP present), which signals the presence of metabolically active cells. Luminescence results were read on TriLux Luminometer. Optimal concentrations for microarray were established by a lack of cell toxicity, at a concentration showing a complete blockage of cell proliferation; paclitaxel (1 μg/mL) and GM-4-53 (5 μg/mL). For microarray studies, cells were plated and treated in […] flasks for 36 h.
After the experimental 36-hour time point, the cells were scraped, washed three times in ice-cold HBSS, spun down, the supernatant removed, and the remaining pellet was rapidly frozen and stored at −80° C. Total RNA was isolated and purified using the Trizol/chloroform method. The RNA quality was assessed, and concentrations were equalized to 82 ng/μI in nuclease-free water. According to the GeneChip™ WT PLUS Reagent Manual for Whole Transcript (WT) expression arrays, whole transcriptome analysis was conducted. Briefly, RNA was reverse transcribed to first strand/second strand […]. The cRNA was purified and assessed for yield before the second cycle single-stranded cDNA synthesis, hydrolysis of RNA, and purification of the second cycle single-stranded cDNA. Subsequently, cDNA was assessed for yield, fragmented, labeled, and hybridized onto the arrays before being subjected to fluidics and imaging using the Gene Atlas (Affymetrix, ThermoFisher Scientific). The array data, quality control, and initial processing from CEL to CHP files were conducted using an expression console before data evaluation using the Affymetrix transcriptome analysis console (Wiki/Kegg pathways) and protein-protein interaction (PPI) String Database (String Consortium 2020)^1. The dataset has been deposited to NIH Gene Expression OmniBus.

MDA-MB-231 cells [6] = assay: Cell proliferation (cell count), 6-day endpoint, Alamar blue; assay type: cell-based, human; conditions: for concentration showing a complete blockage of cell proliferation with lack of cell toxicity: MDA-MB-231, chosen for microarray
Description: MDA-MB-231 cells (ATCC® HTB-26™) were used. These cells are human triple negative breast cancer cells, which we obtained from American Type Culture Collection (ATCC) (Manassas, VA, USA). MDA-MB-231 cells were initially brought up in ATCC-formulated Leibowitz's L-15 medium, supplemented with 10% fetal bovine serum (FBS) and penicillin/streptomycin (100 U/0.1 mg/ml). After confluence, the cells were sub-cultured and grown in Dulbecco's modified Eagle's medium (DMEM) containing phenol red, 7.5% FBS, 4 mM L-glutamine, 20 μM sodium pyruvate, and penicillin/streptomycin (100 U/0.1 mg/ml). Cells were maintained at 37° C. in 5% C02/atmosphere, and every 2-5 days, the medium was replaced and cells sub-cultured. The growth medium was used for all experiments conducted herein.
For MDA-MB-231 cells, both paclitaxel and GM-4-53 were dissolved in DMSO and […]. A stock solution for both compounds was prepped in HBSS. In brief, 96-well plates were seeded with cells (0.04×10^5/well) to a volume of 200 μL, to which drugs were added, and cell proliferation (as cell count) was evaluated at a 6-day endpoint, using Alamar blue. […] Samples were returned to the incubator for 4-6 h, and the reduction in the dye (to resorufin, a fluorescent compound) caused by viable cells was quantitatively analyzed using a Synergy HTX multi-mode reader (Bio-Tek, Winooski, VT, USA), with excitation/emission wavelength settings at 550 nm/580 nm. Cell count was evaluated as % control, and the inhibitory growth (IG50) value was calculated by regression analysis. […] The cytostatic effects of MCF-7 and Ishikawa cell lines were determined using the CellTiter-Glo (CTG) luminescent cell viability assay, which is based on the direct determination of intracellular ATP level (determining the number of viable cells in culture based on the quantification of ATP present), which signals the presence of metabolically active cells. Luminescence results were read on TriLux Luminometer. […]

MDA-MB-231 cells [7] = assay: Cytotoxicity assay at high plating density, 24-36 h; assay type: cell-based, human; conditions: 36-hour toxicity assay, equal drug concentrations, 0.5×10^5 cells/well
Description: For MDA-MB-231 cells, both paclitaxel and GM-4-53 were dissolved in DMSO and […]. A stock solution for both compounds was prepped in HBSS. In brief, 96-well plates were seeded with cells (0.04×10^5/well) to a volume of 200 μL, to which drugs were added, and cell proliferation (as cell count) was evaluated at a 6-day endpoint, using Alamar blue. For Alamar blue testing, a working solution of resazurin prepared in sterile phosphate-buffered saline (PBS)-phenol red (0.5 mg/mL) was added (15% v/v) to each sample in a 96-well plate. Samples were returned to the incubator for 4-6 h, and the reduction in the dye (to resorufin, a fluorescent compound) caused by viable cells was quantitatively analyzed using a Synergy HTX multi-mode reader (Bio-Tek, Winooski, VT, USA), with excitation/emission wavelength settings at 550 nm/580 nm. Cell count was evaluated as % control, and the inhibitory growth (IG50) value was calculated by regression analysis. […] The cytostatic effects of MCF-7 and Ishikawa cell lines were determined using the CellTiter-Glo (CTG) luminescent cell viability assay, which is based on the direct determination of intracellular ATP level (determining the number of viable cells in culture based on the quantification of ATP present), which signals the presence of metabolically active cells. Luminescence results were read on TriLux Luminometer. […]

tubulin = assay: Tubulin polymerization/depolymerization; assay type: biochemical
MDA-MB-231 cells [8] = assay: 3D tumor spheroid study; assay type: cell-based, human; conditions: GM-4-53 5 μg/mL, paclitaxel 1 μg/mL; drugs added day 14, images day 24
Description: MDA-MB-231 cells were plated in low-adhesion, round-bottom, sterile, 96-well plates at a cell density of (0.2×10^5/well), in 200 uL of cell culture media centrifuged at 1800×g for 3 min prior to incubation at 37° C. in 5% C02/atmosphere. For the first 3 days, cells were taken out and re-centrifuged at 1800×g×3 min. 3D spheroids were left to grow for 10 days. On day 14, experimental drugs were added, and images were captured on day 24.
as §1

SMILES | morphological changes of actin cytoskeleton (MDA-MB-231 cells [2]) | amphiregulin (AREG) and epiregulin (EREG) mRNA (MDA-MB-231 cells [5]) | expression of COX2 (MDA-MB-231 cells [5]) | expression of ICAM-1 (MDA-MB-231 cells [5]) | ID1, ID3 and ID4 transcripts (MDA-MB-231 cells [5]) | DEGs shared by both drugs (overlap) (MDA-MB-231 cells [5]) | down-regulated DEGs vs. controls (MDA-MB-231 cells [5]) | upregulated DEGs vs. controls (MDA-MB-231 cells [5]) | differentially expressed genes (DEGs) of 48,226 genes analyzed (MDA-MB-231 cells [5]) | concentration showing a complete blockage of cell proliferation with lack of cell toxicity (MDA-MB-231 cells [6]) [µg/mL] | cytotoxic effects (MDA-MB-231 cells [7]) | effect on 3D tumor spheroid (MDA-MB-231 cells [8]) | other results
CCc1ccc(C(=O)NN2CCc3ccc(O)cc3C2)cc1 [GM-4-53, 4-Ethyl-N-(7-hydroxy-3,4-dihydroisoquinolin-2(1H)-yl)benzamide] | abnormally large-shaped extended actin networks | significantly downregulated | downregulated the expression | reduced the expression | pronounced downregulation | 52 | 168 | 75 | 243 | 5 | no cytotoxic effects | halts the growth and appears to penetrate the tumor core | solubility (Solubility): excellent solubility; patient outcome [1]: deemed in remission; IG50 (cytostatic growth-inhibitory effect) [3]: mid-to-high; IG50 (cytostatic growth-inhibitory effect) [4]: mid-to-high; oncogenic transcription factors (FOS, JUN-b, NFKB1a) driving oncostatin M (OSM) signaling (MDA-MB-231 cells [5]; vs untreated controls): general loss; KLRC3 transcript (MDA-MB-231 cells [5]; greater extent in GM-4-53): loss of the KLRC3 transcript; pIC50 (MDA-MB-231 cells [6]; Homo sapiens, 144 h, MDA-MB-231, 6-day growth study, regression analysis, read-out: anti-proliferative IG50 growth inhibitory concentration): 6.58; effect on tubulin nucleation (tubulin): only mild effects; effect on tubulin polymerization/depolymerization processes (tubulin): failed to show any effect
CC(=O)O[C@H]1C(=O)[C@@]2(C)[C@H]([C@H](OC(=O)c3ccccc3)[C@]3(O)C[C@H](OC(=O)[C@H](O)[C@@H](NC(=O)c4ccccc4)c4ccccc4)C(C)=C1C3(C)C)[C@]1(OC(C)=O)CO[C@@H]1C[C@@H]2O [paclitaxel, reference compound] | abnormally large-shaped extended actin networks | significantly downregulated | downregulated the expression | reduced the expression | pronounced downregulation | 52 | 45 | 108 | 153 | 1 | no cytotoxic effects | halt the growth of the spheroid and central core | –

Source: US11839609B1, “Substituted tetrahydroisoquinolines as anti-mitotic drug in triple negative breast cancer” (Florida A&M University, priority 2021, dated 2023)
